These results are taken from DBAASP.

Some test systems named below: Staphylococcus aureus MR; Candida albicans; Acinetobacter junii RT-4; Escherichia coli D21; Staphylococcus capitis 1; Bacillus megaterium Bm11; Saccharomyces cerevisiae; Vibrio cholerae non-O139; Escherichia coli O157:H7; Vibrio cholerae non-O1.
Holding throughout (test): ≥ marks a high value that may be exact or a test limit, other limits are often not marked, values filed in µg/mL are converted to µM
The test system of assay [1] is Pseudomonas aeruginosa ATCC 27853.
Assay [2] deals with Staphylococcus aureus ATCC 12493.
Assay [3] relates to Candida albicans NCYC 1467.
Assay [4] concerns Escherichia coli NCTC 10418.
Assay [5] deals with Staphylococcus aureus NCTC 10788.
Assay [6] deals with Staphylococcus aureus ATCC 49476.
In assay [7] the test system is Enterococcus faecalis ATCC 29212.
Assay [8] deals with Pseudomonas aeruginosa ATCC 15692.
The subject of assay [9] is Staphylococcus aureus ATCC 25923.
Assay [10] relates to Pseudomonas syringae pv. tabaci 1918NCPPB.
Assay [11] deals with Acinetobacter baumannii ATCC 19606.
The test system of assay [12] is Streptococcus pyogenes ATCC 21547.
Assay [13] deals with Schizosaccharomyces pombe.
Assay [14] has as its system Staphylococcus epidermidis ATCC 12228.
The subject of assay [15] is Yersinia pseudotuberculosis YPIII.
The test system of assay [16] is Candida albicans ATCC 10231.
In assay [17] the test system is Escherichia coli ATCC 25922.
For assay [18], the system named is Staphylococcus aureus Cowan 1.
Assay [19] concerns Proteus vulgaris NCTC 4635.
Assay [20] has as its system Escherichia coli ATCC 8739.
For assay [21], the system named is Staphylococcus aureus ATCC 6538.
The subject of assay [22] is Pseudomonas aeruginosa ATCC 9027.
The test system of assay [23] is Bacillus subtilis ATCC 9372.
In assay [24] the test system is Salmonella enterica subsp. enterica serovar Typhi DMST 22842.

By MIC is commonly meant the lowest concentration that inhibits growth of the organism.

In brackets after ≈: the same amount, converted by molar mass.

As to `CC[C@H](C)[C@@H]1NC(=O)[C@H](CO)NC(=O)[C@H](Cc2ccccc2)NC(=O)[C@H]([C@@H](C)O)NC(=O)[C@H](Cc2c[nH]c3ccccc23)NC(=O)[C@@H](NC(=O)CNC(=O)[C@H](CCCN=C(N)N)NC(=O)[C@H](CC(C)C)NC(=O)[C@H](C)N)CSSC[C@@H](C(=O)N2CCC[C@H]2C(N)=O)NC(=O)[C@@H]2CCCN2C(=O)[C@H](CCCCN)NC(=O)[C@@H]2CCCN2C(=O)[C@@H]2CCCN2C1=O` [ALRGCWTFSIPPKPCP], the MIC in assay [1] was 512 µM (≈ 906 µg/mL); in assay [2], at least 512 µM; in assay [3] it was at least 128 µM; in [4], at least 128 µM; in [5], at least 64 µM.

As to `CC[C@H](C)[C@H](NC(=O)[C@H](C)NC(=O)[C@H](CCCCN)NC(=O)CNC(=O)[C@H](C)NC(=O)[C@H](CO)NC(=O)[C@H](Cc1ccccc1)NC(=O)[C@H](CC(C)C)NC(=O)CNC(=O)CNC(=O)[C@@H](NC(=O)[C@@H](NC(=O)[C@H](Cc1cnc[nH]1)NC(=O)[C@H](Cc1cnc[nH]1)NC(=O)[C@@H](NC(=O)[C@@H](N)Cc1ccccc1)[C@@H](C)CC)[C@@H](C)CC)[C@@H](C)CC)C(=O)N[C@@H](Cc1cnc[nH]1)C(=O)N[C@@H](CCCN=C(N)N)C(=O)N[C@@H](CC(C)C)C(=O)N[C@H](C(=O)N[C@@H](CCCN=C(N)N)C(=O)N[C@@H](CCCN=C(N)N)C(=O)N[C@@H](CCCN=C(N)N)C(=O)O)[C@@H](C)CC` [FIHHIIGGLFSAGKAIHRLIRRR], the MIC in [1] was found to be 192 µM (≈ 512 µg/mL); with Staphylococcus aureus MR it was 12 µM (≈ 32 µg/mL); in assay [6] it was 5.99 µM (≈ 16 µg/mL); against Candida albicans, 48 µM (≈ 128 µg/mL).

With `CC[C@H](C)[C@H](NC(=O)[C@H](CC(C)C)NC(=O)[C@H](CO)NC(=O)[C@H](Cc1cnc[nH]1)NC(=O)[C@@H](NC(=O)[C@H](Cc1cnc[nH]1)NC(=O)[C@H](CCCCN)NC(=O)CNC(=O)[C@@H](NC(=O)[C@H](CO)NC(=O)[C@H](Cc1ccccc1)NC(=O)[C@H](CC(C)C)NC(=O)CNC(=O)CNC(=O)[C@@H](NC(=O)[C@@H](NC(=O)[C@H](Cc1cnc[nH]1)NC(=O)[C@H](Cc1cnc[nH]1)NC(=O)[C@@H](NC(=O)[C@@H](N)Cc1ccccc1)[C@@H](C)CC)[C@@H](C)CC)[C@@H](C)CC)C(C)C)[C@@H](C)CC)C(=O)N[C@@H](Cc1cnc[nH]1)C(=O)NCC(=O)N[C@@H](Cc1cnc[nH]1)C(=O)O` [FIHHIIGGLFSVGKHIHSLIHGH], the MIC in [1] was above 200 µM; in the assay with Staphylococcus aureus MR, at least 100 µM; in assay [6], at least 100 µM; in the assay on Candida albicans it was 50.1 µM (≈ 128 µg/mL).

Regarding `CC[C@H](C)[C@H](NC(=O)[C@H](CCCN=C(N)N)NC(=O)CNC(=O)[C@H](CC(C)C)NC(=O)[C@H](Cc1ccccc1)NC(=O)[C@H](CCCN=C(N)N)NC(=O)[C@H](CO)NC(=O)[C@H](Cc1ccccc1)NC(=O)[C@H](Cc1c[nH]c2ccccc12)NC(=O)[C@H](CCC(N)=O)NC(=O)[C@@H](NC(=O)[C@@H](N)Cc1ccccc1)C(C)C)C(=O)N[C@@H](CC(C)C)C(N)=O` [FVQWFSRFLGRIL], the MIC was 48 µM (≈ 80.1 µg/mL) in assay [1]; 6 µM (≈ 10 µg/mL) in the assay with Acinetobacter junii RT-4; 12 µM (≈ 20 µg/mL) in [7]; 24 µM (≈ 40 µg/mL) in assay [8]; at least 48 µM in the assay with Escherichia coli D21; 6 µM (≈ 10 µg/mL) with Staphylococcus capitis 1. The MIC is 6 µM (≈ 10 µg/mL) in [9]; 12 µM (≈ 20 µg/mL) in assay [10]; 6 µM (≈ 10 µg/mL) in assay [11]; 6 µM (≈ 10 µg/mL) in [12]; 6 µM (≈ 10 µg/mL) in [13]; 6 µM (≈ 10 µg/mL) in [14]. The MIC in assay [15] was 6 µM (≈ 10 µg/mL); in assay [16], 12 µM (≈ 20 µg/mL); in the assay on Bacillus megaterium Bm11, 6 µM (≈ 10 µg/mL); in assay [17], 12 µM (≈ 20 µg/mL); in assay [18], 6 µM (≈ 10 µg/mL); with Saccharomyces cerevisiae, 12 µM (≈ 20 µg/mL).

`CC[C@H](C)[C@H](NC(=O)[C@H](CCCN=C(N)N)NC(=O)CNC(=O)[C@H](CC(C)C)NC(=O)[C@H](Cc1ccccc1)NC(=O)[C@H](CCCN=C(N)N)NC(=O)[C@H](CO)NC(=O)[C@H](Cc1ccccc1)NC(=O)[C@H](Cc1c[nH]c2ccccc12)NC(=O)[C@H](CCCN=C(N)N)NC(=O)[C@@H](NC(=O)[C@@H](N)Cc1ccccc1)C(C)C)C(=O)N[C@@H](CC(C)C)C(N)=O` [FVRWFSRFLGRIL]: the MIC in assay [1] came out at 24 µM (≈ 40.7 µg/mL); in the assay with Acinetobacter junii RT-4 it was 12 µM (≈ 20.4 µg/mL); in [7], 24 µM (≈ 40.7 µg/mL); in [8] it was 24 µM (≈ 40.7 µg/mL); against Escherichia coli D21, 24 µM (≈ 40.7 µg/mL); with Staphylococcus capitis 1, 6 µM (≈ 10.2 µg/mL). Also, the MIC in [9] is 6 µM (≈ 10.2 µg/mL); in assay [10], 6 µM (≈ 10.2 µg/mL); in assay [11] it was 6 µM (≈ 10.2 µg/mL); in [12], 3 µM (≈ 5.09 µg/mL); in assay [13], 12 µM (≈ 20.4 µg/mL); in assay [14], 6 µM (≈ 10.2 µg/mL). Further, the MIC came out at 6 µM (≈ 10.2 µg/mL) in assay [15]; 24 µM (≈ 40.7 µg/mL) in assay [16]; 3 µM (≈ 5.09 µg/mL) in the assay on Bacillus megaterium Bm11; 48 µM (≈ 81.4 µg/mL) in assay [17]; 6 µM (≈ 10.2 µg/mL) in assay [18]; 24 µM (≈ 40.7 µg/mL) with Saccharomyces cerevisiae.

Turning to `CC[C@H](C)[C@H](NC(=O)[C@@H](NC(=O)[C@H](CO)NC(=O)[C@H](C)NC(=O)[C@H](CCCCN)NC(=O)[C@@H](NC(=O)[C@@H](NC(=O)[C@H](CC(=O)O)NC(=O)[C@H](Cc1ccccc1)NC(=O)[C@H](CC(C)C)NC(=O)CN)C(C)C)[C@@H](C)CC)C(C)C)C(=O)NCC(=O)NCC(=O)N[C@@H](CC(C)C)C(=O)O` [GLFDVIKASVIGGL], the MIC was at least 737 µM in [19]; at least 369 µM in [20]; 737 µM (≈ 1020 µg/mL) in [21]; 737 µM (≈ 1020 µg/mL) in [22]; at least 737 µM in assay [23].

Turning to `CC[C@H](C)[C@H](NC(=O)[C@@H](NC(=O)[C@H](CC(=O)O)NC(=O)[C@H](Cc1ccccc1)NC(=O)[C@H](CC(C)C)NC(=O)CN)C(C)C)C(=O)N[C@@H](CCCCN)C(=O)O` [GLFDVIK], the MIC is at least 1290 µM in [19]; at least 1290 µM in assay [20]; above 1290 µM in assay [21]; 1290 µM (≈ 1020 µg/mL) in [22]; at least 1290 µM in [23].

As to `CC(C)[C@H](NC(=O)CNC(=O)[C@@H](N)CC(N)=O)C(=O)N[C@@H](CCC(N)=O)C(=O)N1CCC[C@H]1C(=O)N[C@@H](CCCCN)C(=O)N[C@@H](Cc1ccc(O)cc1)C(=O)N[C@@H](CCCCN)C(=O)N[C@@H](Cc1c[nH]c2ccccc12)C(=O)N[C@@H](Cc1c[nH]c2ccccc12)C(=O)N[C@@H](CCCCN)C(=O)N[C@@H](Cc1c[nH]c2ccccc12)C(=O)N[C@@H](Cc1c[nH]c2ccccc12)C(=O)N[C@@H](CCCCN)C(=O)N[C@@H](CCCCN)C(=O)N[C@@H](Cc1c[nH]c2ccccc12)C(=O)N[C@@H](Cc1c[nH]c2ccccc12)C(N)=O` [NGVQPKYKWWKWWKKWW], the MIC turned out to be 37.4 µM (≈ 91 µg/mL) in assay [1]; 4.52 µM (≈ 11 µg/mL) against Vibrio cholerae non-O139; 4.52 µM (≈ 11 µg/mL) in the assay with Escherichia coli O157:H7; 18.9 µM (≈ 46 µg/mL) in [9]; 9.45 µM (≈ 23 µg/mL) in assay [14]; 9.45 µM (≈ 23 µg/mL) in assay [24]. Also, the MIC (against Vibrio cholerae non-O1; in assay [17]) was 4.52 µM (≈ 11 µg/mL) each time.
